Measured values published in US20220202739A1, “ENDOCANNABINOID MIMETIC AND ANTI-INFLAMMATORY COMPOUND CONTAINING COMPOSITIONS, METHODS OF PREPARATION AND USES THEREOF” (priority 2019, published 2022).
Read-outs that look alike come from different tables or passages of the source.

What was measured:
Type in all cases: cell-based
PPARG = experiment: Gene expression custom microarray, human skin fibroblasts (Example 1): PPARG; settings: human skin fibroblasts, 10 uM, 24 hr; for fold induction at 10 µM: Skin fibroblast, read-out: PPARG↑ gene expression, fold increase or decrease vs untreated cells
From the text: (§1) Cell cultures: A human skin fibroblast cell culture (or cultures) was obtained through the Coriell Cell Repository from the National Institute on Aging Cell Repository (Camden, N.J.), or Promocell GmbH (Heidelberg, Germany). The initial culture was selected from the following cell lines: AG13066, AG11557, AG11796 or GM03651E. The cell lines were derived from donors as follows:
(§2) Experimental phase: When the appropriate quantity of cells had been grown, they were detached as described above, but at the final step were seeded into each well of one or more 6 well dishes. Each well received 2 ml of the cell suspension so they were seeded equally. The dishes were returned to the incubator until 85-95% confluency was reached.
(§3) It is at this stage that all wells were rinsed in PBS after aspirating the growth media. The compound(s) to be tested were previously mixed into a suitable solvent (e.g., DMSO or ethanol) that can be diluted to the desired concentration of test compound (10 μl) in the culture wells without exceeding maximum solvent concentrations and adversely effecting cell viability, and mixed with basal media. NOTE: Standard maximum levels of solvent are 0.1% for DMSO and 0.5% for ETOH.
(§4) Every 2 wells on the 6 well plate served as a biological replicate for the purposes of RNA isolation and genetic expression evaluations making each 6 well dish an n=3 for the test compound(s) contained in the media. Negative control plates (no test compound(s) and only basal media) were also generated. The plates were returned to the incubator for 24 hrs.
(§5) At the end of the 24 hr time period, the plates were removed from the incubator, the test media aspirated, and the cells rinsed with PBS. RNA isolation is performed using the BioRad Aurum Total RNA Mini Kit (Hercules, Calif.) per manufacturer's protocol; which is described, in brief, below: • Add 350 μl of lysis buffer to each well. Pipet multiple times to ensure thorough lysis. Add lysed cells to the collection tube. • Add 350 μl of 70% ETOH to the collection tube and mix thoroughly. • Pipet the generated lysate onto the spin column placed in a new 2 ml tube. Centrifuge for 30 sec between 8,000 and 10,000 g. • Place the spin column containing the now bound RNA, in a new 2 ml tube. Add 700 μl of low stringency wash solution to the spin column. Centrifuge for 30 sec between 8,000 and 10,000 g. Discard the flow through and replace spin column. • Add 80 μl of DNase I dilution to the spin column and incubate at room temperature for 15 minutes. • Add 700 μl of high stringency wash solution to the column and centrifuge for 30 sec between 8,000 and 10,000 g. Discard flow through. • Add 700 μl of low stringency wash solution to the column and centrifuge for 60 sec between 8,000 and 10,000 g. Discard flow through. • Centrifuge for 2 minutes to remove residual wash solution. • Transfer spin column to new 1.5 ml collection tube and add 80 μl of elution solution to the column. Allow 1 minute for saturation of the membrane and then centrifuge for 2 minutes to complete the RNA elution. • Quantify the quantity of RNA and store at −20 C° until use (no more than 1 month)
(§6) The genes tested were: • Cannabinoid receptor 1 (CB1(CNR1)) • Cannabinoid receptor 2 (CB2 (CNR2)) • Fatty acid amide hydrolase (FAAH) • Monoacylglycerol lipase (MGLL, i.e., MAGL) • Peroxisome proliferator-activated receptor gamma (PPARG) • Nuclear factor kappa-light-chain-enhancer of activated B cells (NFκβ) • Interleukin 1 Alpha (IL1alpha) • Cyclooxygenase 1 (PTGS1, i.e., COX1) • Transient receptor potential cation channel subfamily A member 1 (TRPA1) • Transient receptor potential cation channel subfamily V member 1 (TRPV1) • Transient receptor potential cation channel subfamily M member 8 (TRPM8) • Hemoglobin Subunit Beta (HBB) REFERENCE GENE • Ribosomal Protein L13a (RPL13A) REFERENCE GENE

TRPM8 = experiment: Gene expression custom microarray, human skin fibroblasts (Example 1): TRPM8; settings: 24 hr; for TRPM8↑ gene expression, fold increase or decrease vs untreated cells: 10 uM
From the text: as §1, §2
as §3, with “ETOH. The concentration of each test compound is found in Tables 1 & 2.” for “ETOH.”
as §4, §5
(§7) The genes tested were: • Cannabinoid receptor 1 (CB1(CNR1)) • Cannabinoid receptor 2 (CB2 (CNR2)) • Fatty acid amide hydrolase (FAAH) • Monoacylglycerol lipase (MGLL, i.e., MAGL) • Peroxisome proliferator-activated receptor gamma (PPARG) • Nuclear factor kappa-light-chain-enhancer of activated B cells (NFκβ) • Interleukin 1 Alpha (IL1alpha) • Cyclooxygenase 1 (PTGS1, i.e., COX1) • Transient receptor potential cation channel subfamily A member 1 (TRPA1) • Transient receptor potential cation channel subfamily V member 1 (TRPV1) • Transient receptor potential cation channel subfamily M member 8 (TRPM8) • Hemoglobin Subunit Beta (HBB) REFERENCE GENE • Ribosomal Protein L13a (RPL13A) REFERENCE GENE […]

NFKB1 = experiment: Gene expression custom microarray, human skin fibroblasts (Example 1): NFKB1; settings: human skin fibroblasts, 10 uM, 24 hr; for fold induction at 10 µM: Skin fibroblast, read-out: NFKB1↓ gene expression, fold increase or decrease vs untreated cells
From the text: as §1, §2, §3, §4, §5, §6

TRPV1 = experiment: Gene expression custom microarray, human skin fibroblasts (Example 1): TRPV1; settings: 10 uM, 24 hr
From the text: as §1, §2
as §3, with “ETOH. The concentration of each test compound is found in Tables 1 & 2.” for “ETOH.”
as §4
At the end of the 24 hr time period, the plates were removed from the incubator, the test media aspirated, and the cells rinsed with PBS. RNA isolation is performed using the BioRad Aurum Total RNA Mini Kit (Hercules, Calif.) per manufacturer's protocol; which is described, in brief, below: • Add 350 μl of lysis buffer to each well. Pipet multiple times to ensure thorough lysis. Add lysed cells to the collection tube. • Add 350 μl of 70% ETOH to the collection tube and mix thoroughly. • Pipet the generated lysate onto the spin column placed in a new 2 ml tube. Centrifuge for 30 sec between 8,000 and 10,000 g. • Place the spin column containing the now bound RNA, in a new 2 ml tube. Add 700 μl of low stringency wash solution to the spin column. Centrifuge for 30 sec between 8,000 and 10,000 g. […] Allow 1 minute for saturation of the membrane and then centrifuge for 2 minutes to complete the RNA elution. • Quantify the quantity of RNA and store at −20 C° until use (no more than 1 month) […]

MAGL = experiment: Gene expression custom microarray, human skin fibroblasts (Example 1): MAGL; settings: human skin fibroblasts, 10 uM, 24 hr
From the text: as §1, §2
as §3, with “ETOH. The concentration of each test compound is found in Tables 1 & 2.” for “ETOH.”
as §4, §5, §7

TRPA1 = experiment: Gene expression custom microarray, human skin fibroblasts (Example 1): TRPA1; settings: for fold induction at 10 µM: Skin fibroblast, read-out: TRPA1↑ gene expression, fold increase or decrease vs untreated cells
From the text: as §1, §2
as §3, with “ETOH. The concentration of each test compound is found in Tables 1 & 2.” for “ETOH.”
as §4, §5, §7

CNR1 = experiment: Gene expression custom microarray, human skin fibroblasts (Example 1): CNR1; settings: human skin fibroblasts, 10 uM, 24 hr
From the text: as §1, §2
as §3, with “ETOH. The concentration of each test compound is found in Tables 1 & 2.” for “ETOH.”
as §4, §5, §7

IL1A = experiment: Gene expression custom microarray, human skin fibroblasts (Example 1): IL1A; settings: 24 hr; for IL1A↓ gene expression, fold increase or decrease vs untreated cells: 10 uM
From the text: as §1, §2
as §3, with “ETOH. The concentration of each test compound is found in Tables 1 & 2.” for “ETOH.”
as §4, §5, §7

PTGS1 = experiment: Gene expression custom microarray, human skin fibroblasts (Example 1): PTGS1; settings: human skin fibroblasts, 10 uM, 24 hr; for fold induction at 10 µM: Skin fibroblast, read-out: PTGS1↓ gene expression, fold increase or decrease vs untreated cells
From the text: as §1, §2
as §3, with “ETOH. The concentration of each test compound is found in Tables 1 & 2.” for “ETOH.”
as §4, §5, §7

FAAH = experiment: Gene expression custom microarray, human skin fibroblasts (Example 1): FAAH; settings: human skin fibroblasts, 10 uM, 24 hr
From the text: as §1, §2
as §3, with “ETOH. The concentration of each test compound is found in Tables 1 & 2.” for “ETOH.”
as §4, §5, §7

CNR2 = experiment: Gene expression custom microarray, human skin fibroblasts (Example 1): CNR2; settings: human skin fibroblasts, 10 uM, 24 hr
From the text: as §1, §2
as §3, with “ETOH. The concentration of each test compound is found in Tables 1 & 2.” for “ETOH.”
as §4, §5, §7

[1] = human skin fibroblasts, 10 uM, 24 hr

| SMILES | PPARG↑ gene expression, fold increase or decrease vs untreated cells (PPARG) [fold] | TRPM8↑ gene expression, fold increase or decrease vs untreated cells (TRPM8) [fold] | NFKB1↓ gene expression, fold increase or decrease vs untreated cells (NFKB1) [fold] | TRPV1↑ gene expression, fold increase or decrease vs untreated cells (TRPV1) [fold] | MAGL↓ gene expression, fold increase or decrease vs untreated cells (MAGL) [fold] | TRPA1↑ gene expression, fold increase or decrease vs untreated cells (TRPA1; [1]) [fold] | CNR1↑ gene expression, fold increase or decrease vs untreated cells (CNR1) [fold] | IL1A↓ gene expression, fold increase or decrease vs untreated cells (IL1A) [fold] | PTGS1↓ gene expression, fold increase or decrease vs untreated cells (PTGS1) [fold] | FAAH↓ gene expression, fold increase or decrease vs untreated cells (FAAH) [fold] | CNR2↑ gene expression, fold increase or decrease vs untreated cells (CNR2) [fold] | fold induction at 10 µM (NFKB1) | fold induction at 10 µM (PTGS1) | fold induction at 10 µM (PPARG) | fold induction at 10 µM (TRPA1; [1]) | also measured |
| --- | --- | --- | --- | --- | --- | --- | --- | --- | --- | --- | --- | --- | --- | --- | --- | --- |
| CCCCCCCC/C=C\CCCCCCCC(=O)NCCO [N-Oleylethanolamide] | 2.4 | −1.4 | 1.5 | −1.6 | 2.5 | 1.1 | −1.9 | −1.9 | 1.5 | −1.1 | −2.4 | – | – | – | – | – |
| CC(C)=CCC[C@](C)(O[C@@H]1O[C@H](CO[C@@H]2O[C@@H](CO)[C@H](O)[C@H]2O)[C@@H](O)[C@H](O)[C@H]1O)[C@H]1CC[C@]2(C)[C@@H]1[C@H](O)C[C@@H]1[C@@]3(C)CC[C@H](O[C@@H]4O[C@H](CO)[C@@H](O)[C@H](O)[C@H]4O[C@@H]4O[C@H](CO)[C@@H](O)[C@H](O)[C@H]4O)C(C)(C)[C@@H]3CC[C@]12C [Ginsenoside, ginsenoside RC] | – | – | – | – | – | – | – | – | – | – | – | 1.8 | 7.9 | – | – | fold induction at 10 µM (TRPA1; Homo sapiens, 24 h): 1.5 |
| COC(=O)c1ccccc1O [Methyl Salicylate, reference compound] | – | – | – | – | – | – | – | – | – | – | – | 1.9 | 1.4 | 1.8 | 3 | fold induction at 10 µM (MAGL; Skin fibroblast, read-out: MAGL↓ gene expression, fold increase or decrease vs untreated cells): 2.4 |
| C=C1CC/C=C(\C)CC[C@@H]2[C@@H]1CC2(C)C [B-Caryphyllene, B-Caryophyllene] | −1.6 | 5.5 | −1.3 | 2 | 1 | 0 | 0 | 0 | −1.5 | −1.6 | 0 | – | – | – | – | – |
| C=CCc1ccc(O)c(OC)c1 [Eugenol] | – | – | – | – | – | – | – | – | – | – | – | – | – | 1.6 | 30.1 | fold induction at 10 µM (TRPM8; Skin fibroblast, read-out: TRPM8↑ gene expression, fold increase or decrease vs untreated cells): 152; fold induction at 10 µM (CNR1; Skin fibroblast, read-out: CNR1↑ gene expression, fold increase or decrease vs untreated cells): 148; fold induction at 10 µM (IL1A; Skin fibroblast, read-out: IL1A↓ gene expression, fold increase or decrease vs untreated cells): 39.2; fold induction at 10 µM (FAAH; Skin fibroblast, read-out: FAAH↓ gene expression, fold increase or decrease vs untreated cells): 3; fold induction at 10 µM (CNR2; Skin fibroblast, read-out: CNR2↑ gene expression, fold increase or decrease vs untreated cells): 109 |
